Data reported in patent US9289607B2, “Urgency therapy with neuromodulation and C-afferent nerve desensitization” (MEDTRONIC, INC., priority 2010, dated 2016).

Experiments:
Format in all cases: in vivo, Sprague-Dawley rats
[1] = Behaviour after subcutaneous capsaicin injection
Description: (§1) Thirty-two rats were chronically treated with capsaicin or vehicle (e.g., solution without capsaicin added). Capsaicin (Sigma-Aldrich, St. Louis, Mo.) was administered to the rats in a vehicle solution containing approximately 20 milligrams (mg)/milliliters (mL) capsaicin in a mixture of approximately 10% ethanol, approximately 10% Tween 80 and approximately 80% physiological saline. For each of the rats, capsaicin (125 mg/kg) was given subcutaneously in the hindlimb in divided doses on 2 consecutive days: on the first day, a first dose of 25 mg/kg was administered, and, twelve hours later, a second dose of 50 mg/kg was administered, and on the second day, a third dose of 50 mg/kg was administered. Injections were performed under isoflurane anesthesia. Control rats received a corresponding volume of vehicles. Experiments on the effect of neurostimulation on rhythmic bladder contraction were conducted approximately 4 days after injection of the third dose was administered. To evaluate the effectiveness of capsaicin pretreatment, an eye wipe test was performed on each unanesthetized animal just before the experiment. A drop of approximately 100 microgram per milliliter (μg/mL) capsaicin solution was instilled into an eye of the animal and the number of defensive wiping movements was counted. […]

[2] = Eye wipe test of capsaicin pretreatment effectiveness; conditions: drop of 100 μg/mL capsaicin solution in eye; rats pretreated with capsaicin 125 mg/kg s.c.; 16 rats
Description: as §1

[3] = tested on: bladder rhythmic contraction; test: Bladder rhythmic contraction with L6 spinal nerve stimulation after capsaicin pretreatment
Description: Female Sprague-Dawley rats weighing approximately 200-300 grams (g) were anesthetized with urethane (in particular, two injections, approximately 4 min apart, total 1.2 g urethane/kilogram (kg) rat). The anesthetized rats were maintained with a hot-water-circulating heating pad during the studies.
To record bladder contractions, a polyethylene cannula (IntraMedic PE50 tubing, Stoelting Co., Wood Dale, Ill.), was placed into the bladder of each of the rats via the urethra and the urethra was ligated to ensure an isovolumetric bladder. The urethral cannula was connected with a T connector and linked with a low volume transducer (ADInstrument MLT0380/D, Colorado Springs, Colo.). The signal was amplified through a DC amplifier (ADInstrument, ML119, Colorado Springs, Colo.). The other end of the T connector was linked to a 20 cubic centimeters (cc) syringe with a perfusion pump.
To deliver electrical stimulation, a wire electrode was placed under the L6 spinal nerves of each of the rats bilaterally. The dorsal skin around sacral and thoracic surface was shaved and a dorsal midline incision was made from approximately spinal nerve L3 to S2. A combination of sharp and blunt dissection was used to expose the left L6/S1 posterior interarticular process. The S1 transverse process was visualized and removed, and the L6 nerves were located caudal and medial to the sacroiliac junction and were then exposed distal to their emergence from the intervertebral foramina. Two bared portions of a teflon-coated, 40-gauge, stainless steel wire (Cooner Wire Co., Chatsworth, Calif.) were placed bilaterally under each of the L6 nerve. A silicone adhesive (Kwik-Cast, World Precision Instruments, Inc, Sarasota, Fla.) was applied to cover the wire around the nerve. The muscle and incision were closed with silk suture. The wire electrode and a needle electrode under the skin of the tail served as the stimulating cathode and the indifferent anode, respectively.
Biphasic pulses having a pulse width of about 0.1 ms and different intensities were used to stimulate the spinal nerve at frequencies ranging from 0.01 Hz to 100 Hz. A Grass S88 stimulator (Grass Technologies, West Warwick, R.I.) with an SIU5 stimulus isolator (Grass Technologies, West Warwick, R.I.) was used to generate stimulus pulses. Electrical stimulation of spinal nerves with pulses of sufficient intensity evoked hind-toe twitches and pelvic floor muscle contractions. In each rat, the motor threshold, defined by the lowest intensity to evoke any of those muscle contractions was tested. The rats with motor threshold over 0.4 mA were excluded from the study. The intensities of stimulation were given either at 0.6 mA or threshold intensity, which was adjusted until the muscle contraction was just discernible in each animal.
as §1, with “experiment.” for “experiment. A drop of approximately 100 microgram per milliliter (μg/mL) capsaicin solution was instilled into an eye of the animal and the number of defensive wiping movements was counted.”

[4] = capsaicin 125 mg/kg s.c. pretreatment 4 days before, mean control before stimulation, 8 rats, mean±SEM
[5] = capsaicin 125 mg/kg s.c. pretreatment, stimulation approximately 0.6 mA, 0.5 Hz

COc1cc(CNC(=O)CCCC/C=C/C(C)C)ccc1O [capsaicin, Capsaicin]
aversive behaviours thereafter ([1]; after the first 3-4 hours, capsaicin 125 mg/kg s.c. in divided doses over 2 days): no aversive behaviors were observed | behaviour following the first capsaicin injection ([1]; approximately 3-4 hours after first capsaicin injection (25 mg/kg s.c., hindlimb)): signs of pain behaviors | reaction in the eye wipe test (defensive wiping movements) [2]: no reaction | average amplitude of bladder contractions prior to neurostimulation [3, 4]: approximately 19.24±1.89 mmHg | mean frequency of bladder contractions prior to neurostimulation [3, 4]: approximately 3.19±0.20 contractions per 5 minutes | persistence of inhibition after stimulation was terminated (FIG. 12A) [3, 5]: more than 20 minutes | rhythmic bladder contractions during spinal nerve stimulation (FIG. 12A) [3, 5]: substantially completely inhibited | bladder contractions with spinal nerve stimulation at threshold intensity (FIG. 12B) ([3]; capsaicin 125 mg/kg s.c. pretreatment, threshold intensity about 0.01 mA, about 10 Hz, particularly after termination of stimulation): attenuated bladder contractions | frequency of the bladder rhythmic contraction ([3]; capsaicin approximately 125 mg/kg s.c. pretreatment, stimulation approximately 0.6 mA, six rats, p<0.05 vs vehicle pretreated, two-way ANOVA (FIG. 13A)): 18±14 % of control | mean frequency and amplitude of bladder contractions, capsaicin-treated versus vehicle-treated rats ([3]; prior to delivery of neurostimulation): did not differ | effect on bladder rhythmic contraction of stimulation at threshold intensity (FIG. 13B) ([3]; threshold intensity approximately 0.01 mA, believed not statistically significant): trend of inhibitory effects
